From patent publication US5438062A, “Benzo(5,6)cycloheptapyridines, compositions and methods of use” (Schering Corporation, priority 1987, dated 1995)

Assays:
[1] = test system: PAF-induced platelet aggregation (platelet-rich plasma); assay: PAF antagonism, in vitro platelet aggregation assay; type: cell-based; conditions: human PRP; for inhibition at 10 µM: dose 10 micromoles; for IC50: dose giving 50 % PAF antagonism, PAF 1-5×10^-8 M; for inhibition at 5 µM: dose 5 micromoles
Description: Blood was centrifuged at 110×g for 15 min. and the supernatant PRP carefully transferred into a polypropylene tube. Platelet-poor-plasma (PPP) was prepared by centrifuging PRP at 12,000×g for 2 min. in a Beckman Microfuge B. PRP was used within 3 hours of drawing the blood.
Platelet Aggregation Assay: When an aggregating agent such as PAF is added to PRP, platelets aggregate. An aggregometer quantifies this aggregation by measuring light (infra-red) transmission through PRP and comparing to PPP. The aggregation assays were performed using a dual-channel aggregometer (Model 440, Chrono-Log Corp., Hayertown, Pa.). PRP (0.45 ml) in aggregometer curettes was continually stirred (37° C.). Solutions of test compounds or vehicle were added to the PRP, and after incubation for 2 min., 10-15 μl aliquots of PAF solution were added so as to achieve a final concentration of 1-5×10^-8 M. Incubations were continued until the increase in light transmission reached a maximum (usually about 2 min). Values for inhibition were calculated by comparing maximal aggregation obtained in the absence and the presence of the compound. For each experiment, a standard PAF antagonist, such as alprazolam, was used as a positive internal control. […] The test results are shown below in Tables Ia, Ib and Ic.

[2] = test system: histamine-induced lethality; assay: Antihistamine activity: prevention of histamine-induced lethality in guinea pigs; type: in vivo; conditions: Cavia porcellus, guinea pig; for responders at 1 mg/kg / responders at 5 mg/kg: 0.5 h, 1 hour before histamine 1.1 mg/kg i.v., read-out: Antihistaminic Activity, % Survival; for responders at 1 mg/kg: oral dose 1 mg/kg PO; for responders at 5 mg/kg: oral dose 5 mg/kg PO
Description: C. ANTIHISTAMINE ACTIVITY ASSAY
Prevention of Histamine-Induced Lethality in Guinea Pigs. Some of compounds shown below in Table I also were evaluated for antihistamine activity by their ability to protect female albino guinea pigs (250-350 g) against death induced by the intravenous injection of histamine dihydrochloride at 1.1 mg/kg, which is approximately twice the LD99. Doses of the antagonists were administered orally to separate groups of fasted animals 1 hour prior to the challenge with histamine and protection from death recorded for 30 minutes after histamine. ED50 values were determined for each drug by probit analysis.

[3] = CNS activity: antagonism of acetic acid writhing; conditions: mouse, in vivo; mice, oral, 15 minutes before acetic acid i.p.
Description: E. Antagonism of Acetic Acid Writhing. The acetic acid writhing test is a second test useful for determining CNS activity, and is essentially that described by HENDERSHOT and FORSAITH, J. Pharmac. […] Mice were injected with 0.6% aqueous acetic acid at 10 mg/kg i.p. 15 minutes after oral administration of the test drug. The number of writhes for each animal was counted during a 10 minute period starting 3 minutes after acetic acid treatment. A writhe was defined as a sequence of arching of the back, pelvic rotation and hind limb extension.

[4] = CNS activity: antagonism of electro-convulsive shock (ECS); conditions: mouse, in vivo; mice, oral, one hour before ECS; read-out: ECS test ED50
Description: F. Antagonism of Electro-Convulsive Shock (ECS). The ECS test is a third test useful for determining CNS activity. […] One hour after oral administration of the test drug or vehicle, mice were administered a 13 mA, 60 cycle a.c. electroconvulsant shock (ECS) for 0.2 seconds via corneal electrodes.

SMILES: CCSC(=O)N1CCC(=C2c3ccc(Cl)cc3CCc3cccnc32)CC1 [R = SCH2 CH3, R^3 = Cl, R^4 = H, Z = O, 8-chloro-11-[1-thioethoxycarbonyl-4-piperidylidene]-6,11-dihydro-5H-benzo[5,6]cyclohepta[1,2-b]pyridine]
- inhibition at 10 µM [1]: 0%
- responders at 1 mg/kg [2]: 100%
- responders at 5 mg/kg [2]: 80%
- ED50 [3]: > 320 mg/kg
- ED50 [4]: > 320 mg/kg

SMILES: CC(=O)N1CCC(=C2c3ccc(Cl)cc3CC(C)c3cccnc32)CC1 (stereo not drawn) [5-methyl-8-chloro-11-[1-acetyl-4-piperidylidene]-5H-benzo[5,6]cyclohepta[1,2-b]pyridine]
- IC50 [1]: 1 µM

SMILES: CC(=O)N1CCC(=C2c3ccc(Cl)cc3CC(=O)c3cccnc32)CC1 [8-chloro-11-[1-acetyl-4-piperidylidene]-6,11-dihydro-5H-benzo[5,6]cyclohepta[1,2-b]pyridin-5-one]
- IC50 [1]: 1.2 µM

SMILES: CC(=O)N1CCN(C2c3ccc(Cl)cc3CCc3cccnc32)CC1 (stereo not drawn) [R^3 = Cl, X = N, R = CH3, Z = O, R^4 = H, 8-chloro-11-(1-acetyl-4-piperazinyl)-6,11-dihydro-5H-benzo[5,6]cyclohepta[1,2-b]pyridine]
- inhibition at 0.5 µM ([1]; dose .5 micromoles): 43%

SMILES: C=CC(=O)N1CCC(=C2c3ccc(Cl)cc3CCc3cccnc32)CC1 [R^3 = Cl, R^4 = H, R = CHCH2, Z = O, 8-chloro-11-[1-acryloyl-4-piperidylidene]-6,11-dihydro-5H-benzo[5,6]cyclohepta[1,2-b]pyridine]
- inhibition at 25 µM ([1]; dose 25 micromoles): 63%

SMILES: CC(=O)N1CCC(=C2c3ccc(Cl)cc3CCc3ccc[n+](C)c32)CC1
- inhibition at 5 µM [1]: 58%

SMILES: CC(=O)N1CCC(=C2c3cc4ccccc4cc3CCc3cccnc32)CC1
- inhibition at 5 µM [1]: 35%

SMILES: CNC(=O)N1CCC(=C2c3ccc(Cl)cc3CCc3cccnc32)CC1 [R^3 = Cl, R^4 = H, R = NHCH3, Z = O, 8-chloro-11-(1-methylaminocarbonyl-4-piperidylidene)-6,11-dihydro-5H-benzo[5,6]cyclohepta[1,2-b]pyridine]
- inhibition at 50 µM ([1]; dose 50 micromoles): 29%

SMILES: CC(=O)N1CCC(=C2c3ccc(Br)cc3CCc3cccnc32)CC1 [R^3 = Br, R^4 = H, R = CH3, Z = O, 8-bromo-11-[1-acetyl-4-piperidylidene]-6,11-dihydro-5H-benzo[5,6]cyclohepta[1,2-b]pyridine]
- IC50 [1]: 1.2 µM

SMILES: CC(=O)N1CCC(=C2c3cc(F)c(F)cc3CCc3ccc[n+]([O-])c32)CC1
- inhibition at 2.5 µM ([1]; dose 2.5 micromoles): 53%

SMILES: CCC(=O)N1CCC(=C2c3ccc(Cl)cc3CCc3cccnc32)CC1 [R = CH2 CH2, R^3 = Cl, R^4 = H, Z = O, 8-chloro-11-(1-propionyl-4-piperidylidene)-6,11-dihydro-5H-benzo[5,6]cyclohepta[1,2-b]pyridine]
- inhibition at 3 µM ([1]; dose 3 micromoles): 60%
- responders at 1 mg/kg [2]: 40%
- responders at 5 mg/kg [2]: 80%
- ED50 [3]: > 320 mg/kg
- ED50 [4]: > 320 mg/kg

SMILES: CC(=O)N1CCC(=C2c3ccc(Cl)cc3C=Cc3cccnc32)CC1
- IC50 [1]: 0.5 µM

SMILES: CC(=O)N1CCC(=C2c3ccc(Cl)cc3CC(O)c3cccnc32)CC1 (stereo not drawn) [5-hydroxy-8-chloro-11-(1-acetyl-4-piperidylidene)-6,11-dihydro-5H-benzo[5,6]cyclohepta[1,2-b]pyridine]
- IC50 [1]: 5 µM

SMILES: COCC(=O)N1CCN(C2c3ccc(Cl)cc3CCc3cccnc32)CC1 (stereo not drawn) [8-chloro-11-(1-methoxyacetyl-4-piperazinyl)-6,11-dihydro-5H-benzo[5,6]cyclohepta[1,2-b]pyridine]
- IC50 [1]: 5 µM

SMILES: S=C(c1ccccc1)N1CCC(=C2c3ccc(Cl)cc3CCc3cccnc32)CC1 [Z = S, R = Ph, R^3 = Cl, R^4 = H, 8-chloro-11-(1-thiobenzoyl-4-piperidylidene)-6,11-dihydro-5H-benzo[5,6]cyclohepta[1,2-b]pyridine]
- responders at 1 mg/kg [2]: 0%
- responders at 5 mg/kg [2]: 60%
- ED50 [3]: > 320 mg/kg
- ED50 [4]: > 320 mg/kg

SMILES: COCC(=O)N1CCC(=C2c3ccc(Cl)cc3CCc3cccnc32)CC1 [R = CH2 OCH3, R^3 = Cl, R^4 = H, Z = O, 8-chloro-11-(1-methoxyacetyl-4-piperidylidene)-6,11-dihydro-5H-benzo[5,6]cyclohepta[1,2-b]pyridine]
- IC50 [1]: 6 µM
- responders at 1 mg/kg [2]: 80%
- responders at 5 mg/kg [2]: 80%
- ED50 [3]: > 320 mg/kg
- ED50 [4]: > 320 mg/kg

SMILES: CC(=O)N1CCC(C2c3ccccc3CCc3cccnc32)CC1 (stereo not drawn) [R^3 = H, R^4 = H, R = CH3, Z = O, X = CH, 11-(1-acetyl-4-piperidyl)-6,11-dihydro-5H-benzo[5,6]cyclohepta[1,2-b]pyridine]
- IC50 [1]: 5 µM

SMILES: CC(=O)N1CCC(=C2c3ccccc3CCc3ccc[n+]([O-])c32)CC1
- IC50 [1]: 1.5 µM

SMILES: CCCC(=O)N1CCC(=C2c3ccc(Cl)cc3CCc3cccnc32)CC1 [8-chloro-11-(1-n-butyryl-4-piperidylidene)-6,11-dihydro-5H-benzo[5,6]cyclohepta[1,2-b]pyridine]
- responders at 1 mg/kg [2]: 40%
- responders at 5 mg/kg [2]: 100%
- ED50 [3]: > 320 mg/kg
- ED50 [4]: > 320 mg/kg

SMILES: O=C(c1ccccc1)N1CCC(=C2c3ccc(Cl)cc3CCc3cccnc32)CC1 [Z = O, R = Ph, R^3 = Cl, R^4 = H, 8-chloro-11-(1-benzoyl-4-piperidylidene)-6,11-dihydro-5H-benzo[5,6]cyclohepta[1,2-b]pyridine]
- inhibition at 10 µM [1]: 9%
- responders at 1 mg/kg [2]: 0%
- responders at 5 mg/kg [2]: 100%

SMILES: CC(=O)N1CCC(=C2c3ccc(Cl)cc3CCc3cc(C)cnc32)CC1
- inhibition at 0.12 µM ([1]; dose .12 micromoles): 44%

SMILES: CCOC(=O)N1CCC(=C2c3ccc(Cl)cc3CCc3cccnc32)CC1 [R = OC2 H5, R^3 = Cl, R4 = H, Z = O, 8-chloro-6,11-dihydro-11-(1-ethoxycarbonyl-4-piperidylidene)-5H-benzo[5,6]cyclohepta[1,2-b]pyridine, reference compound]
- ED50 ([2]; oral, probit analysis, read-out: Antihistaminic Activity, ED50): 0.19 mg/kg

SMILES: O=CN1CCN(C2c3ccc(Cl)cc3CCc3cccnc32)CC1 (stereo not drawn) [R^3 = Cl, X = N, R = H, Z = O, R^4 = H, 8-chloro-11-(1-formyl-4-piperazinyl)-6,11-dihydro-5H-benzo[5,6]cyclohepta[1,2-b]pyridine]
- IC50 [1]: 5 µM

SMILES: COCC(=O)N1CCC(=C2c3ccc(F)cc3CCc3cccnc32)CC1 [R = CH2 OCH3, R^3 = F, R^4 = H, Z = O, 8-fluoro-11-(1-methoxyacetyl-4-piperidylidene)-6,11-dihydro-5H-benzo[5,6]cyclohepta[1,2-b]pyridine]
- inhibition at 10 µM [1]: 9%
- responders at 1 mg/kg [2]: 100%
- responders at 5 mg/kg [2]: 100%
- ED50 [3]: < 320 mg/kg
- ED50 [4]: < 320 mg/kg
